The subject of series [1] is S. aureus IFO13276. The conditions noted are these: IFO13276, 18 h.
In series [2] the test system is E. coli JCM1649. The conditions noted are these: JCM1649, 18 h.
Series [3] deals with B. subtilis IFO13722. Particulars: IFO13722, 18 h.
Series [4] relates to S. aureus JCM2413. The conditions noted are these: JCM2413, 18 h.
The subject of series [5] is E. coli CE-273. Particulars: CE-273, 18 h.
The test system of series [6] is E. coli CR-3. The conditions noted are these: CR-3, 18 h.
For series [7], the system named is B. sereus IFO3457. Particulars: 18 h.
The subject of series [8] is S. enteritidis ATCC1891. Particulars: ATCC1891, 18 h.
For series [9], the system named is erythrocytes. Particulars: for Hemolytic property (relative value): red cells of human.
The subject of series [10] is S. enteritidis ATC14028. Particulars: ATC14028, 18 h.

Converted amounts (≈) assume the structure as drawn. Read-outs that look alike come from different tables or passages of the source. Where a SMILES comes first, the peptide text is derived from it. Where no end group is shown, it is not given here. Some results are limits rather than exact numbers.

Turning to “INWKGIAAMAKKLL [mastoparanX, INWKGIAAMAKKLL, reference compound]”, the minimal inhibitory concentration (MIC) came to 1.56 µM in series [1]; 3.1 µM in [2]; 3.1 µM in [3]; 12.5 µM in [4]; 3.1 µM in series [5]; 3.1 µM in series [6]. For the same compound, the minimum inhibitory concentration (MIC) turned out to be 3.1 µM in [7], 3.1 µM in series [8] and 6.3 µM in series [10]. Besides, the “Hemolytic property, in words” value in [9] is “high level of hemolytic property”. Further, the “Hemolytic property (relative value)” value in series [9] (1 μM) worked out at 5.4%; in [9] (5 μM), 18.8%; in series [9] (10 μM) it was 86%; in series [9] (100 μM), 93%.

For the compound GWALR [Ribo-2, GWALR], the MIC in series [1] was >800 µM; in series [2] it was >800 µM; in [3] it was >800 µM; in [4] it was 800 µM; in series [5] it was >800 µM; in series [6] it was 800 µM. Further, the MIC in series [7] is >800 µM; in [8], 800 µM; in series [10], 800 µM.

Regarding `CC(C)C[C@H](NC(=O)[C@@H](NC(=O)[C@@H](N)CCCNC(=N)N)C(C)C)C(=O)O` [RVL] (H-Arg-Val-Leu-OH), the MIC in [1] was >800 µM; in series [2], >800 µM; in [3], >800 µM; in series [4], >800 µM; in [5] it was >800 µM; in [6] it was 800 µM (≈ 309 µg/mL). The MIC in series [7] is >800 µM; in [8], >800 µM; in [10], 800 µM (≈ 309 µg/mL).

With ALRALRALRALRALR [ALR5, ALRALRALRALRALR], the minimum inhibitory concentration (MIC) in series [1] amounted to 400 µM; in series [2] it was 100 µM; in series [3], 25 µM; in series [4], 200 µM; in series [5] it was 100 µM; in [7], 100 µM. Also, the MIC in [8] was found to be 100 µM.

As to `CC(C)C[C@H](NC(=O)[C@H](C)N)C(=O)N[C@@H](CCCNC(=N)N)C(=O)O` [ALR] (H-Ala-Leu-Arg-OH), the minimum inhibitory concentration (MIC) in series [1], in [2], in [3], in [4], in series [5] and in series [6] was >200 µM in each case. Further, the MIC in series [7], in series [8] and in [10] was >200 µM throughout.

In the case of “KVLINWKGIAAMAKKII [KVL-mastX, KVL INWKGIAAMAKKII]”, the MIC in [1] is >200 µM; in [2], 100 µM; in [3], 25 µM; in series [4], 50 µM; in series [5], 25 µM; in series [6] it was 50 µM. The MIC is >200 µM in series [7], 100 µM in series [8] and >200 µM in [10].

KNWKGIAGMAKKLLGKNWKLM-NH2 [mast21N]: the minimal inhibitory concentration (MIC) in [1] was determined as 12.5 µM; in series [2] it was 3.1 µM; in series [3], 3.1 µM; in [4], 12.5 µM; in [5] it was 3.1 µM; in [6], 3.1 µM. The MIC in series [7] is 3.1 µM; in series [8], 6.3 µM; in series [10], 6.3 µM. Besides, the “Hemolytic property (relative value)” value in series [9] (100 μM) is 13%.

KVLKVLKVL [KVL3, KVLKVLKVL]: the MIC in series [1], in series [2], in series [3], in [4], in [5] and in [6] was >200 µM in each case. For the same compound, the MIC in series [7], in series [8] and in series [10] was >200 µM throughout.

`CC(C)[C@H](NC(=O)[C@@H](N)CCCNC(=N)N)C(=O)NCC(=O)O` [RVG] (H-Arg-Val-Gly-OH): the MIC in series [1] is >800 µM; in series [2], >800 µM; in [3] it was >800 µM; in series [4], 800 µM (≈ 264 µg/mL); in [5], 800 µM (≈ 264 µg/mL); in series [6], 800 µM (≈ 264 µg/mL). Besides, the MIC in series [7] is >800 µM; in series [8], >800 µM; in series [10] it was 800 µM (≈ 264 µg/mL).

As for `CC(C)C[C@H](NC(=O)[C@@H](NC(=O)[C@@H](N)CCCCN)C(C)C)C(=O)O` [KVL] (H-Lys-Val-Leu-OH), the MIC in [1] is 800 µM (≈ 287 µg/mL); in [2], >800 µM; in [3], 800 µM (≈ 287 µg/mL); in series [4] it was 400 µM (≈ 143 µg/mL); in [5], 800 µM (≈ 287 µg/mL); in [6] it was 800 µM (≈ 287 µg/mL). In addition, the minimum inhibitory concentration (MIC) was 800 µM (≈ 287 µg/mL) in series [7], >800 µM in series [8] and 800 µM (≈ 287 µg/mL) in series [10].

For `CC(C)[C@H](NC(=O)[C@@H](N)CCCCN)C(=O)NCC(=O)O` [KVG] (H-Lys-Val-Gly-OH), the MIC in series [1] was >800 µM; in [2], >800 µM; in series [3] it was >800 µM; in series [4], 800 µM (≈ 242 µg/mL); in [5] it was 800 µM (≈ 242 µg/mL); in [6] it was 800 µM (≈ 242 µg/mL). The minimal inhibitory concentration (MIC) in [7] was >800 µM; in [8] it was >800 µM; in [10], 800 µM (≈ 242 µg/mL).

On to KVLALRL [KVL+, KVL ALRL], for which the MIC in series [1] was >200 µM; in series [2], >200 µM; in series [3] it was >200 µM; in series [4], >200 µM; in series [5], 3.1 µM; in series [6], >200 µM. The MIC in series [7], in series [8] and in [10] was >200 µM throughout.

Regarding RLAWG [Ribo-1, RLAWG], the MIC in series [1] is >800 µM; in series [2], >800 µM; in series [3] it was >800 µM; in [4], 800 µM; in series [5], >800 µM; in series [6], 800 µM. Further, the MIC in [7] is >800 µM; in series [8], >800 µM; in series [10], 800 µM.

“RVGINWKGIAAMAKKII [RVG-mastX, RVG INWKGIAAMAKKII]”: the MIC was >200 µM in [1]; >200 µM in series [2]; 50 µM in series [3]; 200 µM in series [4]; 50 µM in series [5]; 50 µM in series [6]. The MIC in series [7] is >200 µM; in [8], 100 µM; in series [10], 200 µM.

As to KNRKGIAGMAKKLLGNKWKLM [mastWR], the MIC in [1] came out at 50 µM; in series [2] it was 50 µM; in series [3] it was 50 µM; in [4], 50 µM; in series [5], 12.5 µM; in [6], 25 µM. Besides, the MIC in series [7] is 50 µM; in series [8] it was 12.5 µM; in series [10] it was 25 µM.

A word on the MIC: it is the lowest concentration found to suppress growth.

For the origin of these results see US20040072992A1, “Novel peptide capable of specifically acting on biological membrane” (priority 2002, published 2004).
